Source: US20170029355A1, “LABILE ESTERS OF AGROCHEMICALS FOR CONTROLLED RELEASE AND REDUCTION OF OFF-SITE MOVEMENT” (Monsanto Technology LLC, priority 2011, published 2017)

Legend:
[1] = system: broadleaf weeds; assay: Control of broadleaf weeds by ester concentrates (statements of the description); assay type: in vivo; details: emulsifiable and suspension concentrates; Sesbania macrocarpa, morning glory, velvetleaf, Palmer amaranth, fat hen, sicklepod
[2] = system: velvetleaf; assay: Greenhouse post-emergent control of velvetleaf by emulsifiable concentrates (Example 29); assay type: in vivo; details: three weeks after treatment
Experimental: (§1) The efficacy of some photo-labile ester formulations from Example 28 for post-emergent control of velvetleaf was tested in the greenhouse. All formulations were tested at rates of 140, 280, 420, and 560 g dicamba equivalent per hectare rates and compared to the diglycolamine salt of dicamba (CLARITY®) at the same rates and untreated control plants. The velvetleaf plants were 10-15 cm in height at the time of spraying. Percent control was evaluated three weeks after treatment.

[3] = Solubility of the esters (statements of the description); assay type: physicochemical; details: qualitative
[4] = system: Euphorbia species; assay: Field testing for post-emergent activity in the Southern Hemisphere (Example 39); assay type: in vivo; details: 9 as suspension concentrate, other esters as emulsifiable concentrates; for % control, 0.25 lb/ac (0.28 kg/hectare): 0.25 lb dicamba a.e. per acre; for % control, 0.50 lb/ac (0.56 kg/hectare): 0.50 lb dicamba a.e. per acre
Experimental: The primary weeds were Euphorbia species. Ester 9 was tested as a suspension concentrate using the formulation of Example 33 The other esters were tested as emulsifiable concentrates having the formulations shown in the table below. Akzo Nobel SPONTO EC 334 and SPONTO EC 336 along with SURFONIC CO-54 and […] (Huntsman) were used as emulsifiers and Aromatic 200 (A 200; Exxon) was used as the solvent. […] The diglycolamine salt of dicamba (CLARITYTM) was used as a comparator.

[5] = In vitro dicamba photo-release from photo-labile dicamba esters, tetrahydrofuran solvent (Example 26); assay type: physicochemical
Experimental: (§2) This Example describes in vitro testing of dicamba photo-release by homogeneous solutions of photo-labile dicamba esters. The esters were dissolved in tetrahydrofuran (THF). Ester concentration was 0.1 mM. 25 ml of the solution was transferred to 22 mm tubes fabricated from graded seal quartz tubing with a 19/22 tapered seal at the top, which was closed with a tapered glass plug and secured with a plastic ring clamp. The solution was entirely below the quartz-to-glass transition, ensuring that the entire volume was exposed to the full spectrum.
(§3) The sealed tubes were placed in a Growth Chamber where they were exposed to simulated sunlight for 14 hours per day at 35° C. Dicamba concentrations in the solution were measured during the course of the photolysis.
(§4) A sample of the initial solution was reserved in a glass vial away from the light source and analyzed at the conclusion of the study, providing a measurement of the amount of dicamba present without illumination of the photolysis solution (the “dark control”).

[6] = system: hemp sesbania; assay: Field testing of emulsifiable concentrates, post-emergent control (Example 38); assay type: in vivo
Excerpt: (§5) Four dicamba esters, 1a, 2, 9, and 13a, were formulated as emulsifiable concentrates for field testing. All formulations contained 5% each of a alkylbenzene sulfonate calcium salt (Huntsman NANSA EVM 62/H or Akzo Nobel WITCONATE P-1220 EH) and castor oil ethoxylate (Huntsman SURFONIC CO-54) as the emulsifiers and Aromatic 200 (Exxon) or monochlorobenzene (MCB) as the solvent.
(§6) The esters were compared to the diglycolamine salt of dicamba (CLARITY™) for post-emergent control of three broadleaf weeds: velvetleaf, morning glory, and hemp sesbania. Rates of 280 and 420 g dicamba acid equivalent per hectare were used. […] Evaluations were conducted at 11 or 21 days after treatment. Locations and timing were identical for all formulations tested.

[7] = system: morning glory; assay: as above; assay type: in vivo
Excerpt: as §5, §6

[8] = system: velvetleaf; assay: as above; assay type: in vivo
Excerpt: as §5, §6

[9] = Photolysis / cleavage of the esters to dicamba (statements of the description); assay type: physicochemical; details: qualitative
Excerpt: The efficacy of the photolabile esters can be assayed in vitro, or in greenhouse or field experiments. A useful in vitro assay for post-emergent activity involves photolysis of a dilute solution of the esters using simulated sunlight. This is conveniently achieved by photolysis of a solution of the ester in an organic solvent which is miscible with water and to which some water has been added. As described in the Examples, photolysis in acetonitrile or tetrahydrofuran containing 10% water by weight is effective. Low concentrations of the ester should be used so that the entire volume is exposed to sunlight. Since the maximum extinction coefficient of the typical esters above 220 nm is in the range of 1000-10,000 M^−1 cm^−1, a concentration of 0.1 mM is effective. Photolysis in a quartz tube exposed to simulated or actual sunlight is a typical protocol.

[10] = In vitro dicamba photo-release from photo-labile dicamba esters, acetonitrile/10% water solvent (Example 27); assay type: physicochemical; details: acetonitrile containing 10% water
Experimental: as §2, §3, §4
This Example is another photolysis of photo-labile dicamba esters, but using acetonitrile containing 10% water by weight as the solvent. The experimental protocol is otherwise the same as in Example 18.

[11] = In vitro photo-release and hydrolytic release of dicamba in an aqueous medium (Example 36); assay type: physicochemical; details: 0.01 mM (0.005 mM for diesters)
Experimental: This Example describes the determination of photo-lability and hydrolytic lability of dicamba esters in an aqueous medium. 1 mM solutions of the esters were prepared in acetonitrile (or […] solutions of dicamba diesters). The solutions were then diluted with deionized water to a concentration of 0.01 mM (or 0.005 mM for diesters). The solutions were then transferred to quartz tubes and amber bottles and held in a growth chamber by the procedure of Example 26. A 14-hour day was generally used at a constant temperature of 35° C. Hydrolytic activity was assessed by measuring the increase in dicamba concentration after day zero in the amber (dark) bottles. […] Photolysis manifested itself as increased conversion in the quartz tubes compared to the dark control.
This Example provides the results of an aqueous lability test following the protocol of Example 35 for several dicamba esters which convert to dicamba primarily by hydrolysis. As shown by the results in the table below, conversion of the dark controls generally equaled or exceeded conversion in the photolysis solutions.

[12] = system: velvetleaf; assay: Greenhouse post-emergent control of velvetleaf by emulsifiable concentrates (Example 37); assay type: in vivo; details: Abutilon theophrasti, post-emergence, 504 h, greenhouse, Example 37
Experimental: as §1
The methodology of Example 29 was used to evaluate the efficacy of several esters of dicamba which convert to dicamba by hydrolysis for post-emergent control of velvetleaf as emulsifiable concentrate formulations.

[13] = 280 and 420 g dicamba acid equivalent per hectare
[14] = 280 g dicamba acid equivalent per hectare, 11 or 21 days after treatment
[15] = 420 g dicamba acid equivalent per hectare, 11 or 21 days after treatment

Q: Which “control of a number of broadleaf weeds in field testing, in words” value [1] does the source give for `COc1ccc(C(=O)COC(=O)c2c(Cl)ccc(Cl)c2OC)cc1` [Ester 9, 4-methoxyphenacyl methyl ester of dicamba] here?
A: proven effective

Q: And the “% Control of velvetleaf, 140 g/ha” value ([2]; 140 g dicamba equivalent per hectare)?
A: 23%

Q: And the “% Control of velvetleaf, 280 g/ha” value ([2]; 280 g dicamba equivalent per hectare)?
A: 19%

Q: And the “% Control of velvetleaf, 420 g/ha” value ([2]; 420 g dicamba equivalent per hectare)?
A: 28%

Q: What about the “% Control of velvetleaf, 560 g/ha” value ([2]; 560 g dicamba equivalent per hectare) of the same molecule?
A: 29%

Q: And the “solubility, in words” value [3]?
A: relatively insoluble

Q: What about the “% control, 0.25 lb/ac (0.28 kg/hectare)” value [4] of the same molecule?
A: 54%

Q: And the “% control, 0.50 lb/ac (0.56 kg/hectare)” value [4]?
A: 62%

Q: What about the “Dark Control % dicamba” value ([5]; THF, 0.1 mM ester, initial solution kept away from the light source, analyzed at conclusion of study) of the same molecule?
A: 1%

Q: What about the “Conversion to dicamba, 1 day” value ([5]; THF, 0.1 mM ester, simulated sunlight 14 hours per day, 35° C., 1 day) of the same molecule?
A: 76%

Q: What about the “Conversion to dicamba, 2 days” value ([5]; THF, 0.1 mM ester, simulated sunlight 14 hours per day, 35° C., 2 days) of the same molecule?
A: 91%

Q: What about the “Conversion to dicamba, 3 days” value ([5]; THF, 0.1 mM ester, simulated sunlight 14 hours per day, 35° C., 3 days) of the same molecule?
A: 90%

Q: And the “Conversion to dicamba, 5 days” value ([5]; THF, 0.1 mM ester, simulated sunlight 14 hours per day, 35° C., 5 days)?
A: 89%

Q: What about the “Conversion to dicamba, 7 days” value ([5]; THF, 0.1 mM ester, simulated sunlight 14 hours per day, 35° C., 7 days) of the same molecule?
A: 89%

Q: What about the “photo-efficiency of dicamba generation” value ([5]; in vitro studies) of the same molecule?
A: ~100%

Q: And the “post-emergent control of hemp sesbania compared with the dicamba salt, in words” value [6, 13]?
A: equivalent to the dicamba salt

Q: And the “% control, 280 g/ha, Hemp sesbania” value [6, 14]?
A: 86%

Q: And the “% control, 420 g/ha, Hemp sesbania” value [6, 15]?
A: 93%

Q: And the “post-emergent control of morning glory compared with the dicamba salt, in words” value [7, 13]?
A: equivalent to the dicamba salt

Q: What about the “% control, 280 g/ha, Morning glory” value [7, 14] of the same molecule?
A: 98%

Q: And the “% control, 420 g/ha, Morning glory” value [7, 15]?
A: 100%

Q: And the “post-emergent control of velvetleaf compared with the dicamba salt, in words” value [8, 13]?
A: nearly equivalent to the dicamba salt

Q: And the “% control, 280 g/ha, Velvetleaf” value [8, 14]?
A: 79%

Q: And the “% control, 420 g/ha, Velvetleaf” value [8, 15]?
A: 80%

Q: What about the “photolysis / photo-release of dicamba, in words” value [9] of the same molecule?
A: efficient photo-release of 9 in a suspension concentrate formulation occurs over several weeks

Q: What does the source list for `COc1c(Cl)ccc(Cl)c1C(=O)Oc1ccccn1` [Ester 14, 2-Hydroxypyridine Ester of Dicamba]?
A: Dark Control % dicamba ([10]; no illumination): 0%; Conversion to dicamba, 1 day ([10]; simulated sunlight, 1 day): 6%; Conversion to dicamba, 2 days ([10]; simulated sunlight, 2 days): 9%; Conversion to dicamba, 3 days ([10]; simulated sunlight, 3 days): 10%; Conversion to dicamba, 5 days ([10]; simulated sunlight, 5 days): 12%; Conversion to dicamba, 7 days ([10]; simulated sunlight, 7 days): 12%; Conversion to dicamba, 11 days ([10]; simulated sunlight, 11 days): 19%; Conversion to dicamba, 13 days ([10]; simulated sunlight, 13 days): 21%; Conversion to dicamba, 15 days ([10]; simulated sunlight, 15 days): 25%; Conversion to dicamba, 19 days ([10]; simulated sunlight, 19 days): 26%; Conversion to Dicamba, Dark, Day 0 ([11]; amber (dark) bottle, Day 0): 2%; Conversion to Dicamba, Dark, Day 1 ([11]; amber (dark) bottle, Day 1): 68%; Conversion to Dicamba, Dark, Day 2 ([11]; amber (dark) bottle, Day 2): 81%; Conversion to Dicamba, Dark, Day 3 ([11]; amber (dark) bottle, Day 3): 84%; Conversion to Dicamba, Dark, Day 4 ([11]; amber (dark) bottle, Day 4): 86%; Conversion to Dicamba, Dark, Day 7 ([11]; amber (dark) bottle, Day 7): 92%; Conversion to Dicamba, Dark, Day 14 ([11]; amber (dark) bottle, Day 14): 90%; Conversion to Dicamba, Dark, Day 21 ([11]; amber (dark) bottle, Day 21): 91%; Conversion to Dicamba, Dark, Day 28 ([11]; amber (dark) bottle, Day 28): 97%; Conversion to Dicamba, Light, Day 0 ([11]; quartz tube, Day 0): 2%; Conversion to Dicamba, Light, Day 1 ([11]; quartz tube, Day 1): 61%; Conversion to Dicamba, Light, Day 2 ([11]; quartz tube, Day 2): 63%; Conversion to Dicamba, Light, Day 3 ([11]; quartz tube, Day 3): 64%; Conversion to Dicamba, Light, Day 4 ([11]; quartz tube, Day 4): 68%; Conversion to Dicamba, Light, Day 7 ([11]; quartz tube, Day 7): 67%; Conversion to Dicamba, Light, Day 14 ([11]; quartz tube, Day 14): 71%; Conversion to Dicamba, Light, Day 21 ([11]; quartz tube, Day 21): 71%; Conversion to Dicamba, Light, Day 28 ([11]; quartz tube, Day 28): 75%; control of a number of broadleaf weeds in field testing, in words [1]: proven effective; solubility, in words [3]: readily soluble in organic solvents; pest or weed control at 140 g/ha ([12]; 140 g/ha, read-out: % Control of velvetleaf, 140 g/ha): 40%; pest or weed control at 280 g/ha ([12]; 280 g/ha, read-out: % Control of velvetleaf, 280 g/ha): 58.3%; pest or weed control at 420 g/ha ([12]; 420 g/ha, read-out: % Control of velvetleaf, 420 g/ha): 80.8%; pest or weed control at 560 g/ha ([12]; 560 g/ha, read-out: % Control of velvetleaf, 560 g/ha): 85%; % control, 0.25 lb/ac (0.28 kg/hectare) [4]: 47%; % control, 0.50 lb/ac (0.56 kg/hectare) [4]: 56%; cleavage to form dicamba, in words [9]: undergoes efficient cleavage to form dicamba
